A value given as a limit tells only on which side of the number the result lay.

Experimental findings from patent publication US4329426A, “Process for preparation of antibiotics and biologically pure culture for use therein” (Kowa Company, Ltd., priority 1978, dated 1982) are described below.

The nature of one series: Solubility. The format is physicochemical.
The nature of another series: Acute toxicity in mice. The format is in vivo. The settings on record: mouse, in vivo.
The next series concerns mice. In words: Acute toxicity in mice. It is filed as in vivo.

Broadly, the LD50 is the dose expected to kill half of the subjects tested. A higher LD50 goes with a less toxic substance. As for `CNCC1CCC(N)C(OC2C(N)CC(OC)C(N(C)C(=O)CN)C2O)O1` (stereo not drawn) [KA-7038 I], in “Solubility”, the Solubility in acetone entry is reported as “sightly soluble”; the “Solubility in chloroform, ethyl acetate, diethyl ether, hexane and petroleum ether” value (from here on “Solubility in chloroform, ethyl acetate”) is on record as “Insoluble”; the Solubility in ethanol result is listed as “little soluble”; the Solubility in methanol result was “Easily soluble”. The Solubility in water entry in “Solubility” was “Very readily soluble”. For the same compound, in the series “Acute toxicity in mice” (iv.), the LD50 was above 100 mg/kg. For the same compound, the LD50 in the series “Acute toxicity in mice” (sc.) is above 400 mg/kg.
In the case of `CNC1C(O)C(OC2OC(CN)CCC2N)C(N)C(O)C1OC` (stereo not drawn) [KA-7038 IV], in the series “Solubility”, the Solubility in acetone entry was “slightly soluble”; the “Solubility in chloroform, ethyl acetate” value is listed as “Insoluble”; the Solubility in ethanol entry is “little soluble”; the Solubility in methanol result is on record as “Easily soluble”. In addition, the Solubility in water entry in “Solubility” is recorded as “Very readily soluble”. Moreover, the LD50 in the series “Acute toxicity in mice” (iv.) is above 300 mg/kg. The LD50 in the series “Acute toxicity in mice” (sc.) is above 600 mg/kg.
For `CNCC1CCC(N)C(OC2C(N)CC(OC)C(NC)C2O)O1` (stereo not drawn) [KA-7038 VI], in the series “Solubility”, the Solubility in acetone result was “slightly soluble”; the “Solubility in chloroform, ethyl acetate” value is “Insoluble”; the Solubility in ethanol result is recorded as “little soluble”; the Solubility in methanol entry is given as “Easily soluble”. Besides, in “Solubility”, the Solubility in water result is recorded as “Very readily soluble”. The LD50 with mice (iv.) is listed as above 300 mg/kg. The same compound returned a 50% lethal dose (LD50) in the series with mice (sc.) above 600 mg/kg.
As for `CNCC1CCC(N)C(OC2C(N)CC(OC)C(NC)C2O)O1` (stereo not drawn) [KA-7038 III], in the series “Solubility”, the Solubility in acetone result is reported as “slightly soluble”; the “Solubility in chloroform, ethyl acetate” value was “Insoluble”; the Solubility in ethanol result is “little soluble”; the Solubility in methanol result was “Easily soluble”. For the same compound, the Solubility in water entry in “Solubility” was “Very readily soluble”. In the series “Acute toxicity in mice” (iv.), this compound yielded an LD50 above 300 mg/kg. The compound also gave a 50% lethal dose (LD50) in the series “Acute toxicity in mice” (sc.) above 600 mg/kg.
With `CNC1C(OC)CC(N)C(OC2OC(CN)CCC2N)C1O` (stereo not drawn) [KA-7038 V], in the series “Solubility”, the Solubility in acetone result is listed as “slightly soluble”; the “Solubility in chloroform, ethyl acetate” value was “Insoluble”; the Solubility in ethanol entry is listed as “little soluble”; the Solubility in methanol result is “Easily soluble”. The Solubility in water entry in “Solubility” is reported as “Very readily soluble”. In addition, in “Acute toxicity in mice” (iv.), the LD50 is above 300 mg/kg. For the same compound, the LD50 in the series “Acute toxicity in mice” (sc.) was above 600 mg/kg.
As for `CNC1C(O)CC(N)C(OC2OC(CN)CCC2N)C1O` (stereo not drawn) [KA-7038 II], in the series “Solubility”, the Solubility in acetone entry was “slightly soluble”; the “Solubility in chloroform, ethyl acetate” value is listed as “Insoluble”; the Solubility in ethanol entry is reported as “little soluble”; the Solubility in methanol entry is listed as “Easily soluble”. In “Solubility”, the Solubility in water result was “Very readily soluble”. In “Acute toxicity in mice” (iv.), this compound yielded a median lethal dose (LD50) above 300 mg/kg. The compound further gave an LD50 in the series “Acute toxicity in mice” (sc.) above 600 mg/kg.
